Assay results published in doi:10.1101/2025.09.24.678246 (bioRxiv, 2025).
Values after ≈ are worked out from the molar mass of the structure shown. Values joined by “and” are separate entries in the source; they are usually repeats but may differ in a detail not shown here. Equal entries are not always repeated. Where two headings read alike, the source gives them in different places.

Legend:
[1] = p.o. 25 mg/kg, CD-1 mice
P. aeruginosa PA01 = assay: MIC screening against Gram-negative pathogens: P. aeruginosa
Description: MIC measurements were based on a method previously described[6]. Overnight liquid cultures of E. coli BW, E. coli C0244, A. baumannii ATCC 17978, K. pneumoniae ATCC 43816, P. aeruginosa PA01 and E. faecium ATCC 19434 strains were inoculated with a single colony from a freshly streaked agar plate of the corresponding bacterial strain and cultured in M9 minimal medium supplemented with amino acids[6]. The bacterial culture was prepared by washing 1 mL of overnight culture in PBS pH 7.4 (x3), then diluted to OD600 = 0.5 and used to inoculate 1:1000 in M9 minimal medium with amino acids in 96-well plates. Compounds were added to 96-well plates in two-fold serial dilutions. The plates were incubated stationary at 37 °C for 18 h, then OD600 was measured. […] The assay was performed in duplicate.

WT H37Rv = assay: Agar MIC of C48; format: cell-based; details: Mycobacterium tuberculosis, 504 h
BioA = BioA (Mycobacterium tuberculosis, UniProt P9WQ81); assay: BioA inhibition assay (coupled BioA/BioD fluorescence displacement, IC50); format: biochemical
Chain of BioA (P9WQ81 whole entry, looked up): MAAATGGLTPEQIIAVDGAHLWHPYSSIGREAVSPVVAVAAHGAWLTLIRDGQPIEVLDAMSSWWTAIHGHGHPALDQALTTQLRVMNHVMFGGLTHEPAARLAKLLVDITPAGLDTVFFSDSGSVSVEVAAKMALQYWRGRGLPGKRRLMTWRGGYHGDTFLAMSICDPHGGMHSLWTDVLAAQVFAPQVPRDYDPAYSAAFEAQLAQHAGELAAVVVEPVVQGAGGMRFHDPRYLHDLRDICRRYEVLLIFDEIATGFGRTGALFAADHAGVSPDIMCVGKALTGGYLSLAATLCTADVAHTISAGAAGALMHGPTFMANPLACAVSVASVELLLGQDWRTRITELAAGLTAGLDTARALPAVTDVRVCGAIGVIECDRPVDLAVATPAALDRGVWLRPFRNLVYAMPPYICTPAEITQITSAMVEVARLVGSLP

Mtb H37Rv = format: in vivo, BALB/c mice; details: for spleen CFU: Day 42, standard acute model, BALB/c, per mouse
M. bovis 0AF2122 = assay: microbe, parasite or virus in culture; format: cell-based; details: Mycobacterium tuberculosis variant bovis

**Q.** With `O=C1CCc2cc(N3CCN(C(=O)c4ccc(F)c(Br)c4)CC3)ncc21` [C48] as the compound, how does the plasma concentration ([1]; 0 h) read?
**A.** 0

**Q.** And the plasma concentration ([1]; 0.5 h, 25 mg/kg)?
**A.** 10400 and 11300 and 10800

**Q.** What about the plasma concentration ([1]; 1 h, 25 mg/kg) of the same compound?
**A.** 15700 and 11100 and 13300

**Q.** And the plasma concentration ([1]; 3 h, 25 mg/kg)?
**A.** 12000 and 11100 and 12600

**Q.** What about the plasma concentration ([1]; 5 h, 25 mg/kg) of the same compound?
**A.** 14500 and 12000 and 8860

**Q.** And the plasma concentration ([1]; 7 h, 25 mg/kg)?
**A.** 9480 and 6360 and 8380

**Q.** And the MIC (P. aeruginosa PA01)?
**A.** inactive

**Q.** And the MIC (WT H37Rv)?
**A.** 0.8 µM

**Q.** What about the IC50 (BioA; 50 nM BioA) of the same compound?
**A.** 34 nM

**Q.** And the activity (BioA; C48 2.60123 nM, 50 nM BioA)?
**A.** 100% and 105%

**Q.** What about the activity at 0.00260123 µM (BioA; C48 2.60123 nM, 50 nM BioA) of the same compound?
**A.** 99.5%

**Q.** What about the activity (BioA; C48 3.90184 nM, 50 nM BioA) of the same compound?
**A.** 98% and 101%

**Q.** And the activity at 0.00390184 µM (BioA; C48 3.90184 nM, 50 nM BioA)?
**A.** 95.4%

**Q.** And the activity (BioA; C48 5.85277 nM, 50 nM BioA)?
**A.** 98.6% and 97%

**Q.** What about the activity at 0.00585277 µM (BioA; C48 5.85277 nM, 50 nM BioA) of the same compound?
**A.** 96.2%

**Q.** And the activity (BioA; C48 8.77915 nM, 50 nM BioA)?
**A.** 94.6% and 97.2%

**Q.** And the activity at 0.00877915 µM (BioA; C48 8.77915 nM, 50 nM BioA)?
**A.** 94%

**Q.** What about the activity (BioA; C48 13.1687 nM, 50 nM BioA) of the same compound?
**A.** 90.9% and 91.4%

**Q.** What about the activity at 0.0131687 µM (BioA; C48 13.1687 nM, 50 nM BioA) of the same compound?
**A.** 90.4%

**Q.** And the activity (BioA; C48 19.7531 nM, 50 nM BioA)?
**A.** 81.3% and 85.6%

**Q.** What about the activity at 0.0197531 µM (BioA; C48 19.7531 nM, 50 nM BioA) of the same compound?
**A.** 80.3%

**Q.** And the activity (BioA; C48 29.6296 nM, 50 nM BioA)?
**A.** 64.4% and 66.5%

**Q.** What about the activity at 0.0296296 µM (BioA; C48 29.6296 nM, 50 nM BioA) of the same compound?
**A.** 63.7%

**Q.** And the activity (BioA; C48 44.4444 nM, 50 nM BioA)?
**A.** 19.1% and 25.7%

**Q.** What about the activity at 0.0444444 µM (BioA; C48 44.4444 nM, 50 nM BioA) of the same compound?
**A.** 20.9%

**Q.** What about the activity (BioA; C48 66.6667 nM, 50 nM BioA) of the same compound?
**A.** 0.926% and 1.11%

**Q.** What about the activity at 0.0666667 µM (BioA; C48 66.6667 nM, 50 nM BioA) of the same compound?
**A.** 1.35%

**Q.** What about the remaining activity at 0.00114183 µM (BioA; read-out: Vi/Vo %) of the same compound?
**A.** 103%

**Q.** And the remaining activity at 0.00171274 µM (BioA; read-out: Vi/Vo %)?
**A.** 106%

**Q.** And the remaining activity at 0.00256912 µM (BioA; read-out: Vi/Vo %)?
**A.** 106%

**Q.** And the remaining activity at 0.00385367 µM (BioA; read-out: Vi/Vo %)?
**A.** 97%

**Q.** What about the remaining activity at 0.00578051 µM (BioA; read-out: Vi/Vo %) of the same compound?
**A.** 96.5%

**Q.** What about the remaining activity at 0.00867076 µM (BioA; read-out: Vi/Vo %) of the same compound?
**A.** 89.3%

**Q.** And the remaining activity at 0.0130061 µM (BioA; read-out: Vi/Vo %)?
**A.** 88.9%

**Q.** And the remaining activity at 0.0195092 µM (BioA; read-out: Vi/Vo %)?
**A.** 78.8%

**Q.** And the remaining activity at 0.0292638 µM (BioA; read-out: Vi/Vo %)?
**A.** 60.8%

**Q.** What about the remaining activity at 0.0438957 µM (BioA; read-out: Vi/Vo %) of the same compound?
**A.** 42%

**Q.** What about the remaining activity at 0.0658436 µM (BioA; read-out: Vi/Vo %) of the same compound?
**A.** 0%

**Q.** What about the remaining activity at 0.0987654 µM (BioA; read-out: Vi/Vo %) of the same compound?
**A.** 0%

**Q.** What about the remaining activity at 0.148148 µM (BioA; read-out: Vi/Vo %) of the same compound?
**A.** 0%

**Q.** And the remaining activity at 0.222222 µM (BioA; read-out: Vi/Vo %)?
**A.** 0%

**Q.** And the remaining activity at 0.333333 µM (BioA; read-out: Vi/Vo %)?
**A.** 0%

**Q.** What about the “spleen CFU” value (Mtb H37Rv; 100mg/kg C48 p.o.) of the same compound?
**A.** 1075 CFU and 3750 CFU and 6400 CFU and 18666.7 CFU and 6650 CFU and 6725 CFU

**Q.** What about the “bacterial burden per mouse, Fig. 5B” value (Mtb H37Rv; 100 mg/kg, day 14 (values identical to Vehicle Control: baseline)) of the same compound?
**A.** 16500 and 43500 and 12750 and 24500 and 14500

**Q.** And the “bacterial burden per mouse, Fig. 5B” value (Mtb H37Rv; 100 mg/kg, day 28)?
**A.** 170000

**Q.** What about the “bacterial burden per mouse, Fig. 5B” value (Mtb H37Rv; 100 mg/kg, day 42) of the same compound?
**A.** 325000 and 425000 and 1800000 and 566667 and 170000 and 673000

**Q.** What about the “spleen CFU” value (Mtb H37Rv; 200mg/kg C48 p.o.) of the same compound?
**A.** 7225 CFU and 14500 CFU and 8975 CFU and 12750 CFU and 18750 CFU and 7075 CFU

**Q.** And the “bacterial burden per mouse, Fig. 5B” value (Mtb H37Rv; 200 mg/kg, day 14 (values identical to Vehicle Control: baseline))?
**A.** 16500 and 43500 and 12750 and 24500 and 14500

**Q.** And the “bacterial burden per mouse, Fig. 5B” value (Mtb H37Rv; 200 mg/kg, day 42)?
**A.** 552500 and 365000 and 477500 and 437500 and 560000 and 517500

**Q.** And the “efficacy in the conventional mouse model of TB” value (Mtb H37Rv; 100 and 200 mg/kg p.o.)?
**A.** failed to show efficacy

**Q.** And the MIC (M. bovis 0AF2122)?
**A.** 0.0313 µM (≈ 0.0131 µg/mL)
